ChEMBL document CHEMBL5584348, “Exploring Degradation of Intrinsically Disordered Protein Yes-Associated Protein Induced by Proteolysis TArgeting Chimeras” (J Med Chem, 2024)
pIC50: −log10 of the molar value. The source made the active and inactive calls. The calls are words filed in the database; no cut-off is given here.

How the values were obtained:
[1] = Toxicity in immunodeficient male NSG mouse xenografted with human Huh-7 cells assessed as change in triglyceride content in liver at 35 mg/kg, ip administered every 3 days for 24 days; format: organism-based; details: in vivo, 576 h, time 24 day
[2] = target: T1, von Hippel-Lindau disease tumor suppressor/Transcriptional coactivator YAP1 (Homo sapiens, UniProt P40337+P46937); test: PROTAC activity at YAP/VHL in human Huh-7 cells assessed as induction of YAP degradation at 20 uM measured for 24 hrs in presence of 4-(3,4-dimethoxyphenyl)-2-phenyl-5,7-dihydro-6H-benzo[b]pyrido[2,3-d]azepin-6-one by Western blot analysis; format: cell-based
Target sequence in this assay (P40337 whole entry, looked up): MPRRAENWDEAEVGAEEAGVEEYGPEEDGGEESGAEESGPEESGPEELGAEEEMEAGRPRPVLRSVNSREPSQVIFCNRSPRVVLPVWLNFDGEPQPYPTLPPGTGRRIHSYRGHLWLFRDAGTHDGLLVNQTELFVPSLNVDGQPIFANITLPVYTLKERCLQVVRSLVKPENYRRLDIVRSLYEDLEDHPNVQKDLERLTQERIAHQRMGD
Target sequence in this assay (P46937 whole entry, looked up): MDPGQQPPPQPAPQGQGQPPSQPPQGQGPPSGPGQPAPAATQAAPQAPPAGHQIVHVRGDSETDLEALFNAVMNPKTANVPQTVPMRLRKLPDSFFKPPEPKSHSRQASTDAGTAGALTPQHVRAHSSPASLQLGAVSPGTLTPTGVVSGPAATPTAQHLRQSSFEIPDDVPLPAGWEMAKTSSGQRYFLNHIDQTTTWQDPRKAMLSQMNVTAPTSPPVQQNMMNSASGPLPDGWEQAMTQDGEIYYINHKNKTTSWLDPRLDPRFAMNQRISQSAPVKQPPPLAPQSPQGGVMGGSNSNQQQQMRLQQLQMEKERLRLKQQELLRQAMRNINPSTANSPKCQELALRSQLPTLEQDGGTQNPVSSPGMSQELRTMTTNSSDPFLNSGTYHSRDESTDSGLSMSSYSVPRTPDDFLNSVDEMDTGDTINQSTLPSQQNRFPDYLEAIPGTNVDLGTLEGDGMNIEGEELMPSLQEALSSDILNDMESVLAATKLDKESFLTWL

[3] = target: T1, von Hippel-Lindau disease tumor suppressor/Transcriptional coactivator YAP1; test: PROTAC activity at YAP/VHL in human NCI-H226 cells assessed as reduction in YAP level at 10 uM incubated for 48 hrs by Western blot analysis relative to control; format: cell-based; parameters: scale not given: the % may be the effect or the level left
Target sequence in this assay (P40337 whole entry, looked up): as the sequence (P40337 whole entry, looked up) above
Target sequence in this assay (P46937 whole entry, looked up): as the sequence (P46937 whole entry, looked up) above

[4] = Toxicity in immunodeficient male NSG mouse xenografted with human Huh-7 cells assessed as change in body weight at 35 mg/kg, ip administered every 3 days for 24 days; format: organism-based; details: in vivo, 576 h, time 24 day
[5] = Toxicity in immunodeficient male NSG mouse xenografted with human Huh-7 cells assessed as change in ALT level in liver at 35 mg/kg, ip administered every 3 days for 24 days; format: organism-based; details: in vivo, 576 h, time 24 day
[6] = target: T1, von Hippel-Lindau disease tumor suppressor/Transcriptional coactivator YAP1; test: PROTAC activity at YAP/VHL in human Huh-7 cells assessed as induction of YAP degradation at 20 uM incubated at 48 hrs by Western blot analysis; format: cell-based
Target sequence in this assay (P40337 whole entry, looked up): as the sequence (P40337 whole entry, looked up) above
Target sequence in this assay (P46937 whole entry, looked up): as the sequence (P46937 whole entry, looked up) above

Huh-7 [7] = test: Antitumor activity against human Huh-7 cells xenografted in immunodeficient male NSG mouse assessed as tumor growth inhibition at 35 mg/kg, ip administered every 3 days for 24 days; format: functional; details: Huh-7, 576 h, time 24 day, read-out: TGI
Huh-7 [8] = test: Antitumor activity against human Huh-7 cells xenografted in immunodeficient male NSG mouse assessed as tumor growth inhibition at 35 mg/kg, ip administered every 3 days for 24 days in presence of sorafenib; format: functional; details: Huh-7, 576 h, time 24 day, read-out: TGI
[9] = target: T1, von Hippel-Lindau disease tumor suppressor/Transcriptional coactivator YAP1; test: PROTAC activity at YAP/VHL in human Huh-7 cells assessed as induction of YAP degradation at 20 uM incubated at 24 hrs by Western blot analysis; format: cell-based
Target sequence in this assay (P40337 whole entry, looked up): as the sequence (P40337 whole entry, looked up) above
Target sequence in this assay (P46937 whole entry, looked up): as the sequence (P46937 whole entry, looked up) above

[10] = AUClast in Sprague-Dawley rat at 35 mg/kg, ip measured upto 24 hrs by LC-MS/MS analysis; format: ADME, organism-based; details: in vivo
Huh-7 [11] = test: Antitumor activity against human Huh-7 cells xenografted in immunodeficient male NSG mouse assessed as inhibition of tumor growth at 35 mg/kg, ip administered for 3 days; format: functional, organism-based; details: time 3.0 day
[12] = target: T1, von Hippel-Lindau disease tumor suppressor/Transcriptional coactivator YAP1; test: PROTAC activity at YAP/VHL in human Huh-7 cells assessed as downregulation of YAP level at 20 uM incubated at 24 hrs by Western blot analysis; format: cell-based
Target sequence in this assay (P40337 whole entry, looked up): as the sequence (P40337 whole entry, looked up) above
Target sequence in this assay (P46937 whole entry, looked up): as the sequence (P46937 whole entry, looked up) above

Huh-7 [13] = test: Antitumor activity against human Huh-7 cells xenografted in immunodeficient male NSG mouse assessed as reduction in CYR61 level at 35 mg/kg, ip administered every 3 days for 24 days by Western blot analysis; format: functional, organism-based; details: time 24.0 day
[14] = Half life in Sprague-Dawley rat at 35 mg/kg, ip measured upto 24 hrs by LC-MS/MS analysis; format: ADME, organism-based; details: in vivo
NCI-H226 [15] = test: Antiproliferative activity against human NCI-H226 cells assessed as cell killing at 10 uM incubated for 3 days by CCK-8 assay; format: functional, cell-based; details: time 3.0 day
Huh-7 [16] = test: Antitumor activity against human Huh-7 cells xenografted in immunodeficient male NSG mouse assessed as reduction in CTGF level at 35 mg/kg, ip administered every 3 days for 24 days by Western blot analysis; format: functional, organism-based; details: time 24.0 day
[17] = target: T1, von Hippel-Lindau disease tumor suppressor/Transcriptional coactivator YAP1; test: PROTAC activity at YAP/VHL in human NCI-H226 cells assessed as downregulation of YAP level at 20 uM incubated at 24 hrs by Western blot analysis; format: cell-based
Target sequence in this assay (P40337 whole entry, looked up): as the sequence (P40337 whole entry, looked up) above
Target sequence in this assay (P46937 whole entry, looked up): as the sequence (P46937 whole entry, looked up) above

NCI-H226 [18] = test: Antiproliferative activity against NF2 deficient- human NCI-H226 cells assessed as cell growth inhibition incubated for 4 days by CCK-8 assay; format: functional, cell-based; details: NCI-H226, 96 h
[19] = target: T1, von Hippel-Lindau disease tumor suppressor/Transcriptional coactivator YAP1; test: PROTAC activity at YAP/VHL in human Huh-7 cells assessed as induction of YAP degradation at 20 uM pretreated with VHL ligand 2 for 2 hrs followed by compound addition and measured after 24 hrs by Western blot analysis; format: cell-based
[20] = target: T1, von Hippel-Lindau disease tumor suppressor/Transcriptional coactivator YAP1; test: PROTAC activity at YAP/VHL in human Huh-7 cells assessed as suppression of CTGF expression at 10 to 20 uM measured for 24 hrs by Western blot analysis relative to control; format: cell-based; details: dose 10-20 µM
[21] = AUC (0 to infinity) in Sprague-Dawley rat at 35 mg/kg, ip measured upto 24 hrs by LC-MS/MS analysis; format: ADME, organism-based; details: in vivo
[22] = target: T1, von Hippel-Lindau disease tumor suppressor/Transcriptional coactivator YAP1; test: PROTAC activity at YAP/VHL in human Huh-7 cells assessed as induction of YAP degradation incubated for 48 hrs by Western blot analysis; format: cell-based
Target sequence in this assay (P40337 whole entry): as the sequence (P40337 whole entry, looked up) above
Target sequence in this assay (P46937 whole entry): as the sequence (P46937 whole entry, looked up) above

[23] = Toxicity in immunodeficient male NSG mouse xenografted with human Huh-7 cells assessed as change in AST level in liver at 35 mg/kg, ip administered every 3 days for 24 days; format: organism-based; details: in vivo, 576 h, time 24 day
Huh-7 [24] = test: Antiproliferative activity against human Huh-7 cells overexpressing YAP assessed as cell growth inhibition incubated for 4 days by CCK-8 assay; format: functional, cell-based; details: Huh-7, 96 h
[25] = target: T1, von Hippel-Lindau disease tumor suppressor/Transcriptional coactivator YAP1; test: PROTAC activity at YAP/VHL in human Huh-7 cells assessed as induction of YAP degradation by measuring half life at 20 uM incubated at 48 hrs by Western blot analysis; format: cell-based
[26] = target: Transcriptional coactivator YAP1 (Homo sapiens) (UniProt P46937); test: Inhibition of YAP nuclear localization in human Huh-7 cells assessed as decrease in integrated YAP intensity incubated for 12 hrs by immunofluorescence based microscopic analysis; format: cell-based; details: dose <= 20.0 µM
[27] = target: T1, von Hippel-Lindau disease tumor suppressor/Transcriptional coactivator YAP1; test: PROTAC activity at YAP/VHL in human Huh-7 cells assessed as induction of YAP degradation at 10 uM measured for 24 hrs by Western blot analysis relative to control; format: cell-based
NCI-H226 [28] = test: Antiproliferative activity against NF2 deficient- human NCI-H226 cells assessed as maximum cell growth inhibition incubated for 4 days by CCK-8 assay relative to control; format: functional; details: time 4 day
[29] = target: T1, von Hippel-Lindau disease tumor suppressor/Transcriptional coactivator YAP1; test: PROTAC activity at YAP/VHL in human NCI-H226 cells assessed as induction of YAP degradation incubated for 48 hrs by Western blot analysis; format: cell-based
Target sequence in this assay (P40337 whole entry): as the sequence (P40337 whole entry, looked up) above
Target sequence in this assay (P46937 whole entry): as the sequence (P46937 whole entry, looked up) above

AML12 = test: Antiproliferative activity against mouse AML12 cells assessed as suppression of cell proliferation incubated for 4 days by CCK-8 assay; format: toxicity, cell-based; details: aml12, 96 h, time 4 day
[30] = target: T1, von Hippel-Lindau disease tumor suppressor/Transcriptional coactivator YAP1; test: PROTAC activity at YAP/VHL in human Huh-7 cells assessed as reduction on CTGF expression incubated for 48 hrs by Western blot analysis; format: cell-based; details: dose 2.5-20 µM
[31] = target: T1, von Hippel-Lindau disease tumor suppressor/Transcriptional coactivator YAP1; test: PROTAC activity at YAP/VHL in human Huh-7 cells assessed as induction of YAP degradation at 20 uM measured for 24 hrs in presence of MG-132 by Western blot analysis; format: cell-based
Huh-7 [32] = test: Antiproliferative activity against human Huh-7 cells overexpressing YAP assessed as suppression of cell proliferation incubated for 4 days by CCK-8 assay; format: functional, cell-based; details: time 4.0 day
[33] = target: T1, von Hippel-Lindau disease tumor suppressor/Transcriptional coactivator YAP1; test: PROTAC activity at YAP/VHL in human NCI-H226 cells assessed as reduction in CTGF expression incubated for 48 hrs by Western blot analysis; format: cell-based; details: dose 2.5-20 µM

Chain of Transcriptional coactivator YAP1 (Homo sapiens) (P46937 whole entry): as the sequence (P46937 whole entry, looked up) above

COc1cc(-c2cc(-c3ccccc3)nc3c2CC(=O)Nc2ccccc2-3)ccc1OCCOCCOCCC(=O)N[C@H](C(=O)N1C[C@H](O)C[C@H]1C(=O)N[C@@H](C)c1ccc(-c2scnc2C)cc1)C(C)(C)C
Activity [1]: Non-Toxic
Activity [2]: Active
Activity [3]: 80%
Activity [4]: Non-Toxic
Activity [5]: Non-Toxic
Activity [6]: 98%
inhibition in vivo at 35 mg/kg (Huh-7 [7]): 82%
inhibition in vivo at 35 mg/kg (Huh-7 [8]): 93%
Activity [9]: 65%
AUC(0-t) at 24 h [10]: 1.94 µg·h/mL
Activity (Huh-7 [11]): Active
Activity [12]: Active
Activity (Huh-7 [13]): Active
half-life [14]: 13.3 h
Activity (NCI-H226 [15]): inactive
Activity (Huh-7 [16]): Active
Activity [17]: Active
pIC50 (NCI-H226 [18]): 4.82
Activity [19]: Active
Activity [20]: Active
AUC(0-inf) [21]: 2.69 µg·h/mL
DC50 [22]: 4.3 µM
Activity [23]: Non-Toxic
pIC50 (Huh-7 [24]): 5.54
T1/2 [25]: 16.5 h
inhibition [26]: Dose-Dependent Effect
Activity [27]: 50%
inhibition (INH) (NCI-H226 [28]): 60%
DC50 [29]: 8.2 µM
Activity (AML12): Non-Toxic
Activity [30]: Dose-Dependent Effect
Activity [31]: Active
Activity (Huh-7 [32]): Active
Activity [33]: Dose-Dependent Effect
